According to patent publication US4260606A, “3-Methyleneazetidine derivatives” (A. H. Robins Company, Inc., priority 1979, dated 1981):
Several values for one entry are separate records, joined by “and”; a condition that tells them apart may be missing. Equal entries are not always repeated. Where two headings read alike, the source gives them in different places.

System: Tetrabenazine-Induced Ptosis
Test: Blockade of Tetrabenazine-Induced Ptosis in Mice (anti-tetrabenazine test)
Type: in vivo, mice (ICR-DUB strain)
Conditions: for ED50: Mus musculus, ip, read-out: ED50 (95% Confidence Limits), blockade of tetrabenazine-induced ptosis
Method: Antidepressant agents block many of the behavioral and physiological effects of tetrabenazine and reserpine, such as motor depression, hypothermia, and ptosis. […] Thirty minutes later the presence or absence of complete eyelid closure (ptosis) is assessed in each animal. For compounds which produced blockage of ptosis in all animals, and ED50 value is obtained using a minimum of three geometrically spaced doses with five mice/dose.

[1] = mice, IP, 30 minutes prior to tetrabenazine 32 mg/kg IP, ptosis assessed thirty minutes later, probit analysis, 95% confidence limits

Compound	ED50 [mg/kg]	ED50 [1] [mg/kg]	ED50 (95% Confidence Limits), blockade of tetrabenazine-induced ptosis [1]
CCOc1ccccc1OCC1CNCCO1 (stereo not drawn) [viloxazine]	1.5		
CN(C)CCCN1c2ccccc2CCc2ccccc21 [imipramine]		0.3	0.4 (0.2-0.9) mg/kg IP and 0.5 (0.2-1.2) mg/kg IP
